What was measured:
5-HT1A receptor = biological target: T1, 5-HT1A receptor (Homo sapiens, UniProt P08908); experiment: 5-HT1A receptor binding (inhibition of labeled ligand binding); conditions: compound at 1micrMol
T1 sequence (P08908 1-422): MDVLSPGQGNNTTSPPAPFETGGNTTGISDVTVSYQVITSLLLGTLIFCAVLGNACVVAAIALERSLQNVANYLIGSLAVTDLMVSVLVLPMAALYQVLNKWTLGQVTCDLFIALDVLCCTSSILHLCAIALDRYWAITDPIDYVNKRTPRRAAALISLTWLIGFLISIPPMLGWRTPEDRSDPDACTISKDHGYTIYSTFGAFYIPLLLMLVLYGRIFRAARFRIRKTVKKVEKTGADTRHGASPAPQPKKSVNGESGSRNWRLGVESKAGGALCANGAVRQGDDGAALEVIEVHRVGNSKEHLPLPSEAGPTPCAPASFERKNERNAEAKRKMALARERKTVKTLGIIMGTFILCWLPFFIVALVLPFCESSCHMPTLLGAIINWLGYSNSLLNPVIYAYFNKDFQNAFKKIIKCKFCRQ
Method: (§1) The compounds of the invention may be used in the treatment of CNS disorders in mammals, especially human. Of particular interest is the use of the compounds of the invention as anti-dyskinetic agents. Dyskinesia is a serious side effect associated with L-DOPA treatment of patients with Parkinson's disease.
(§2) The compounds of Examples 1, 3, 4 and 9 were tested for their 5-HT1A receptor binding activity and dopamine (D2, D3 and D4.4) receptors binding activity according to the protocols set forth above. The percentage inhibition of labeled ligand binding caused by the indicated few test ligand compound of the invention at different concentrations of said test ligand is shown in Table I.

dopamine D2 receptor = dopamine D2 receptor (Homo sapiens, UniProt P14416); experiment: dopamine D2 receptor binding (inhibition of labeled ligand binding); conditions: compound at 1micrMol
Chain of dopamine D2 receptor (P14416 whole entry): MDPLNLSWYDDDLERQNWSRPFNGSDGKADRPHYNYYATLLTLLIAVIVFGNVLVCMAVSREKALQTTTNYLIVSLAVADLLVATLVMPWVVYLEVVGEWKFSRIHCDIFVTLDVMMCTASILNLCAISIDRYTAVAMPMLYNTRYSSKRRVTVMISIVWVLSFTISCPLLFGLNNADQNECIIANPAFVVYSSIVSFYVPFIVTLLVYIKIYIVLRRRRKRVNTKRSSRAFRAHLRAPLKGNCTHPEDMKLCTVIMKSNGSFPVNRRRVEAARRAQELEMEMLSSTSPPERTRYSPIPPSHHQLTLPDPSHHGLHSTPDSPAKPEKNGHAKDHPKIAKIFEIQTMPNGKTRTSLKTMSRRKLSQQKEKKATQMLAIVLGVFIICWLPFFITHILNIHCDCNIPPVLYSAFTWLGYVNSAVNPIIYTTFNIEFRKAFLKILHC
Method: as §1, §2

dopamine D4.4 receptor = biological target: T2, dopamine D4.4 receptor (Homo sapiens, UniProt P21917); experiment: dopamine D4.4 receptor binding (inhibition of labeled ligand binding); conditions: compound at 1micrMol
T2 sequence (P21917 1-419): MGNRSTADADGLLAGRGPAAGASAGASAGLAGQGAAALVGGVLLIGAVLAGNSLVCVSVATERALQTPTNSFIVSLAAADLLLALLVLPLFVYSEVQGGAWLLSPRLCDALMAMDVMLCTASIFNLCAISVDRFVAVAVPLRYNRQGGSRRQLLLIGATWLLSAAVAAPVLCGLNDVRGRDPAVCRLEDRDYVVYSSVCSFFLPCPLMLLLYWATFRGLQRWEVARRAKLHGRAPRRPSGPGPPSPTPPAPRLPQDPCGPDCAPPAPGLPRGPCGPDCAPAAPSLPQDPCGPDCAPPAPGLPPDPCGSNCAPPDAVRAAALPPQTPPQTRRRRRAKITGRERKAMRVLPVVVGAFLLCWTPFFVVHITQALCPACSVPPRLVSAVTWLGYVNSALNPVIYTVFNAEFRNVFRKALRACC
Method: as §1, §2

dopamine D3 receptor = dopamine D3 receptor (Homo sapiens, UniProt P35462); experiment: dopamine D3 receptor binding (inhibition of labeled ligand binding); conditions: compound at 1micrMol
Chain of dopamine D3 receptor (P35462 whole entry): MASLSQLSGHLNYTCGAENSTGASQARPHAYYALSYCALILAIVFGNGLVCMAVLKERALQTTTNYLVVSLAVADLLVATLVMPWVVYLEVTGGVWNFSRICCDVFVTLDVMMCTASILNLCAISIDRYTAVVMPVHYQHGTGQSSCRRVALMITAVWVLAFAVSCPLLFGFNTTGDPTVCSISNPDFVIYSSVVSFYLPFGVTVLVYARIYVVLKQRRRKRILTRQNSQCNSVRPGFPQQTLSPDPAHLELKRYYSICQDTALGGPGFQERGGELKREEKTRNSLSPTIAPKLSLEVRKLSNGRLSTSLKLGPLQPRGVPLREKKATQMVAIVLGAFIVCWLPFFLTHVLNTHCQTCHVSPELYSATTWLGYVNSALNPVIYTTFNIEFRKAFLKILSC
Method: as §1, §2

[1] = system: L-DOPA induced dyskinesia in parkinsonian rats; experiment: L-DOPA-induced abnormal involuntary movements (AIMS) in the 6-OHDA lesion rat model; format: in vivo
Method: In the following study, the compound of Example 2 was tested for its in vivo activity against L-DOpA induced dyskinesia in parkinsonian rats (the model is the L-DOPA-induced abnormal involuntary movements (AIMS) in the 6-hydroxydopamine (6-OHDA) lesion rat model).
Rats were unilaterally lesioned with (6-OHDA) in medial forebrain bundle. Three weeks later, rats were injected with apomorphine (0.1 mg/kg s.c.) and numbers of contralateral turns were counted using a rotameter. Two weeks after the apomorphine test, rats showing marked turning activity were selected and split into 2 groups:
The experimental group, which received the compound of Example 2, and the control group, which received the injection medium for said compound (CMC in saline); n=5 and 3 respectively.
All animals were treated daily with L-dopa/carbidopa (25/6 mg/kg respectively) and dyskinetic movements were scored commencing day 5. Compounds were administered in escalating dose, at daily doses shown below, commencing day 11 of L-dopa treatment: 1 mg/kg—11th day, 1 mg/kg—12th, 2 mg/kg—15th, 2 mg/kg—16th. On the 17th day, the rats of the control group were injected with propranolol (10 mg/kg in saline), whereas the rats of the experimental group were injected with saline. […]
The following dyskinetic movements were scored: dystonic posturing, head and upper body movements, forelimb, locomotion, trunk, orolingual.

Oc1cccc(N2CCN(Cc3cccc4c3oc3ccccc34)CC2)c1 [Example L-33]
5-HT1A binding, percentage inhibition of labeled ligand binding (5-HT1A receptor): 43.4%
D2 binding, percentage inhibition of labeled ligand binding (dopamine D2 receptor): 75%
D4 binding, percentage inhibition of labeled ligand binding (dopamine D4.4 receptor): 77.7%
D3 binding, percentage inhibition of labeled ligand binding (dopamine D3 receptor): 78.2%
anti-dyskinetic effect (AIM score, sum of all movements) ([1]; 6-OHDA lesioned rats on daily L-dopa/carbidopa 25/6 mg/kg, 16th day, second successive daily dose of 2 mg/kg): strong anti-dyskinetic effect

c1ccc(C2CCN(Cc3cccc4c3oc3ccccc34)CC2)cc1 [Example L-105]
5-HT1A binding, percentage inhibition of labeled ligand binding (5-HT1A receptor): 42.2%
D2 binding, percentage inhibition of labeled ligand binding (dopamine D2 receptor): 93.8%
D4 binding, percentage inhibition of labeled ligand binding (dopamine D4.4 receptor): 69.1%
D3 binding, percentage inhibition of labeled ligand binding (dopamine D3 receptor): 44.5%

COc1ccccc1N1CCN(Cc2cccc3c2oc2ccccc23)CC1 [Example L-107]
5-HT1A binding, percentage inhibition of labeled ligand binding (5-HT1A receptor): 86.7%
D2 binding, percentage inhibition of labeled ligand binding (dopamine D2 receptor): 96%
D4 binding, percentage inhibition of labeled ligand binding (dopamine D4.4 receptor): 78%
D3 binding, percentage inhibition of labeled ligand binding (dopamine D3 receptor): 33.7%

N#Cc1ccccc1N1CCN(Cc2cccc3c2oc2ccccc23)CC1 [Example L-109]
5-HT1A binding, percentage inhibition of labeled ligand binding (5-HT1A receptor): 73.5%
D2 binding, percentage inhibition of labeled ligand binding (dopamine D2 receptor): 68.7%
D4 binding, percentage inhibition of labeled ligand binding (dopamine D4.4 receptor): 64.9%
D3 binding, percentage inhibition of labeled ligand binding (dopamine D3 receptor): 63.2%

CC(C)NCC(O)COc1cccc2ccccc12 (stereo not drawn) [Propanolol, propranolol, reference compound]
effect on abnormal involuntary movements (AIM score) ([1]; 6-OHDA lesioned rats on L-dopa/carbidopa, control group, 10 mg/kg in saline on the 17th day): reduced the abnormal involuntary movements
